Assay results from publication PMC4207410, “Clicked Cinnamic/Caffeic Esters and Amides as Radical Scavengers and 5-Lipoxygenase Inhibitors” (International Journal of Medicinal Chemistry, 2014).

What was measured:
5-LO [1] = biological target: T1, 5-LO (Homo sapiens, UniProt P09917); test: 5-LO products biosynthesis assay in thapsigargin-stimulated human PMNL; assay type: cell-based; parameters: 5-LO is highly expressed in PMNL; endogenous in cells; host or cells: human PMNL from peripheral blood; settings: for potency relative to Zileuton (1) in human PMNL: comparison of IC50 values, thapsigargin-stimulated human PMNL; for IC50: read-out: Human PMNL IC50 (μM) [SD]
T1 sequence (P09917 1-674): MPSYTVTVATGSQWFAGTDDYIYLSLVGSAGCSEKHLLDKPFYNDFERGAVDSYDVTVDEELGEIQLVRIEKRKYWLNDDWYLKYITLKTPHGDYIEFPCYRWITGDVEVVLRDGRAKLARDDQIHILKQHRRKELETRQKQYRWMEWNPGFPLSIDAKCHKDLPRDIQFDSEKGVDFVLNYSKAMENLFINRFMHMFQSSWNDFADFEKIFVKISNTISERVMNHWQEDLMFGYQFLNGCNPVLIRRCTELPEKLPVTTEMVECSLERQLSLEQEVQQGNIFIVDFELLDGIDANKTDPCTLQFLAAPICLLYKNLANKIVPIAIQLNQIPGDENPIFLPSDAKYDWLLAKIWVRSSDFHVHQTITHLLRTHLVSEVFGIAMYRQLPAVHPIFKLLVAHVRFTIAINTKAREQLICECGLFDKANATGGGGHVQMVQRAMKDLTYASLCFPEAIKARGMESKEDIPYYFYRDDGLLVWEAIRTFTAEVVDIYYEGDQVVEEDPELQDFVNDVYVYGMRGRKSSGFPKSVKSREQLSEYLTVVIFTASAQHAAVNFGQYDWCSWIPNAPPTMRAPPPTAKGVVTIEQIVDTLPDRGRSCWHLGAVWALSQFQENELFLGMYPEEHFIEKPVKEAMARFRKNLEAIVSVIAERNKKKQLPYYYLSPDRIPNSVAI
Protocol: Human PMNL were prepared from peripheral blood as described and were suspended in HBSS containing 1.6 mM CaCl2 (10^7 cells/mL) and preincubated with compounds for 5 min at 37°C in the presence of 1 U/mL of adenosine deaminase (Sigma-Aldrich, Oakville, ON, Canada). Cells were then stimulated for 15 min at 37°C with 1 μM thapsigargin (Sigma-Aldrich). Reactions were stopped by the addition of 0.5 volume of cold MeOH : CH3CN (1 : 1) and 50 ng of PGB2 as internal standard and samples were stored at −20°C until processing on octadecyl (C18) columns and RP-HPLC analysis as indicated above. Data are expressed as means ± SEM of 3 independent experiments, each performed in duplicate (Figures 4 and 5).
5-LO is highly expressed in PMNL and these cells are important producers of LTB4 [28, 32].

[2] = Antiradical activity assay (DPPH radical scavenging); settings: DPPH in ethanol, 30 min in the dark at room temperature, absorbance 520 nm; mean [SD] of 2 experiments
Protocol: The radical scavenging activity of test compounds was measured as previously described using 2,2-diphenyl-1-picrylhydrazyl (DPPH) as a stable radical with slight modifications. Particular care was taken in the preparation of the control (DPPH reagent + ethanol as a diluent without test compounds). Controls with O.D. of 0.350-0.360 at 520 nm were deemed as acceptable to avoid variations in IC50 calculations. 1 mL of DPPH in ethanol ([…]) was mixed with 1 mL of the test compounds at the indicated concentrations or their diluent (ethanol). Each mixture was then shaken vigorously and held in the dark for 30 min at room temperature. The absorbance of DPPH at 520 nm was then measured. The radical scavenging activity was expressed in terms of % inhibition of DPPH absorbance: (1) % Inhibition=[(Acontrol−Atest)/(Acontrol)] ×100, where A control is the absorbance of the control (DPPH solution without test compound) and A test is the absorbance of the test sample (DPPH solution plus compound). Data are expressed as means ± SD of 2 independent experiments, each performed in triplicate (Table 1). IC50 values were calculated from a sigmoidal concentration-response curve fitting model with a variable slope on GraphPad Prism 5 software (GraphPad software, San Diego, California).
Radical scavenging activities of analogous cinnamoyl esters 8a–h, cinnamoyl amides 9a–h, caffeoyl esters 15a–h, and caffeoyl amides 16a–h were assayed using 2,2-diphenyl-1-picrylhydrazyl (DPPH) as a stable radical and are expressed as IC50 concentrations in Table 1.

5-LO [3] = biological target: T1, 5-LO; test: 5-LO products biosynthesis assay in whole HEK293 cells stably transfected with 5-LO and FLAP; assay type: cell-based; parameters: expressed in transfected cells; settings: for potency relative to Zileuton (1) in HEK293 cells: comparison of IC50 values
From the text: HEK293 cells were cotransfected with a pcDNA3.1 vector expressing 5-LO and a pBUDCE4.1 vector expressing 5-LO activating protein (FLAP) using Polyfect reagent (QIAGEN, Mississauga, ON, Canada) according to the manufacturer's protocol. Stable transfections of HEK293 cells were obtained following cell culture in the presence of Geneticin and Zeocin (Invitrogen, Burlington, ON, Canada). The resulting stable double transfectants were propagated in culture and aliquots were frozen. Once thawed for a series of experiments, each aliquot of cells is cultured for a maximum of 6 weeks before being discarded.
For cell stimulation of 5-LO products, transfected HEK293 cells were collected following trypsinization, washed and the cell pellet was resuspended in Hank's balanced salt solution (HBSS) (Lonza, Walkersville, MD) containing 1.6 mM CaCl2 at a concentration of 5 × 10^5 cells mL^−1. Cells were preincubated with each compound at the indicated concentration for 5 min at 37°C. Cells were then stimulated for 15 minutes at 37°C with the addition of 10 μM calcium ionophore A23187 (Sigma-Aldrich, Oakville, ON, Canada) and 10 μM arachidonic acid (Cayman Chemical, Ann Arbor, MI). Stimulations were stopped and processed on RP-HPLC as described previously. Data are expressed as means ± SEM of 3 independent experiments, each performed in duplicate (Figures 2 and 3).

5-LO [4] = biological target: T1, 5-LO; parameters: expressed in transfected cells; method as in PMID 19152786; settings: 10 μM; cited from earlier work

Row | melting point | 5-LO inhibition in stimulated human PMNL (in words) (5-LO [1]; stimulated human PMNL, 1 μM) | IC50 [2] | potency relative to Zileuton (1) in human PMNL (5-LO [1]) | IC50 (5-LO [1]) | potency relative to Zileuton (1) in HEK293 cells (5-LO [3]) | 5-LO inhibition in whole HEK293 cells (in words) (5-LO [3]; whole HEK293 cells, 1 μM) | Structure (SMILES) | also measured
1 | 196 to 198 °C (dec.) | complete loss of inhibition | 9.55 µM |  |  |  |  | O=C(/C=C/c1ccc(O)c(O)c1)OCCn1ccnn1 [15a, (E)-2-(1H-1,2,3-Triazol-1-yl)ethyl 3-(3,4-Dihydroxyphenyl)acrylate] | 
2 | 219 to 220 °C (dec.) | roughly equipotent with Zileuton | 8.7 µM |  |  |  |  | O=C(/C=C/c1ccc(O)c(O)c1)OCCn1cc(C2=CCCCC2)nn1 [15d] | 
3 | 181 to 182 °C (dec.) | roughly equipotent with Zileuton | 9.01 µM | equivalent to Zileuton | 3.1 µM | four times more potent than Zileuton |  | Cc1ccc(-c2cn(CCOC(=O)/C=C/c3ccc(O)c(O)c3)nn2)cc1 [15f] | 
4 | 238 to 240 °C (dec.) |  | 9.4 µM | equivalent to Zileuton | 3.3 µM | four times more potent than Zileuton |  | O=C(/C=C/c1ccc(O)c(O)c1)OCCn1cc(-c2ccc(F)cc2)nn1 [15g] | 
5 | 220 to 230 °C (dec.) | roughly equipotent with Zileuton | 8.85 µM |  |  |  |  | O=Cc1ccc(-c2cn(CCOC(=O)/C=C/c3ccc(O)c(O)c3)nn2)cc1 [15h] | 
6 | 220 °C (dec.) |  | 13 µM | less active than Zileuton | 8.2 µM | equipotent to Zileuton | no significant 5-LO inhibitory activity | Cc1ccc(-c2cn(CCNC(=O)/C=C/c3ccc(O)c(O)c3)nn2)cc1 [16f] | 
7 | 226 °C (dec.) |  | 12 µM | less active than Zileuton | 8.8 µM | equipotent to Zileuton | no significant 5-LO inhibitory activity | O=C(/C=C/c1ccc(O)c(O)c1)NCCn1cc(-c2ccc(F)cc2)nn1 [16g] | 

The next lines start with the compound.

Row | Structure (SMILES) | melting point | 5-LO inhibition in stimulated human PMNL (in words) (5-LO [1]; stimulated human PMNL, 1 μM) | IC50 [2] | potency relative to Zileuton (1) in human PMNL (5-LO [1]) | IC50 (5-LO [1]) | potency relative to Zileuton (1) in HEK293 cells (5-LO [3]) | 5-LO inhibition in whole HEK293 cells (in words) (5-LO [3]; whole HEK293 cells, 1 μM) | also measured
8 | O=C(/C=C/c1ccc(O)c(O)c1)OCCc1ccccc1 [CAPE 2, caffeic acid phenethyl ester, reference compound] |  |  | 16.5 µM |  |  |  |  | inhibition at 1 µM (5-LO [1]; read-out: inhibition of 5-LO, stimulated human PMNL, 1 μM): ~75%; 5-LO products synthesis, % of the control value (5-LO [3]; whole HEK293 cells, 1 μM): roughly 50%; inhibition at 1 µM (5-LO [3]; whole HEK293 cells, 1 μM, read-out: inhibition of LTs biosynthesis): ~50%
9 | CC(c1cc2ccccc2s1)N(O)C(N)=O (stereo not drawn) [Zileuton 1, Zileuton, reference compound] |  |  | > 100 µM |  |  |  | little to no activity | inhibition at 10 µM (5-LO [3]; whole HEK293 cells, 10 μM (not shown)): ~25%
10 | O=C(/C=C/c1ccc(O)c(O)c1)OCCn1cc(COC(=O)/C=C/c2ccccc2)nn1 [compound 3, reference compound] |  | roughly equipotent with Zileuton | 12 µM |  |  |  |  | 
11 | O=C(/C=C/c1ccccc1)OCCn1cc(COC(=O)/C=C/c2ccc(O)c(O)c2)nn1 [compound 4, reference compound] |  | roughly equipotent with Zileuton | 13.4 µM |  |  |  | not significantly different than the control | 5-LO inhibition in whole cells (5-LO [4]): near complete 5-LO inhibition
